“And” between values parts separate entries of the source, which are not always exact repeats. Identical values can stand only once.
test system: cos-7 cells; test: DNA transfection: luciferase expression relative to Lipofectamine 2000; type: cell-based; conditions: lipid/DNA 2.5 w/w; 300 ng of DNA per well
In short: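 Lipid/DNA complexes, 300 ng luciferase DNA per well at 2.5-25 w/w lipid:DNA, were formed in sodium acetate/Optimem and added to overnight-seeded cos-7 cells. Luciferase was measured by Bright-Glo luminescence after 48 hours and quantified against an enzyme standard curve. Values are expressed as % of Lipofectamine 2000 at 2.5 w/w.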

Row | Compound | luciferase expression (second part of table, values relative to LIPO2000)
1 | CCCCCCCCCCCCNC(=O)CCN(CCCO)CCC(=O)NCCCCCCCCCCCC [ND20] | 278.4
2 | CCCCCCCCCCCCNC(=O)CCN(CCC(=O)NCCCCCCCCCCCC)CC(C)O (stereo not drawn) [ND21] | 47.4
3 | CCCCCCCCCCCCNC(=O)CCN(CCC(=O)NCCCCCCCCCCCC)CC(C)O (stereo not drawn) [ND22] | 29.2
4 | CCCCCCCCCCCCNC(=O)CCN(CCC(=O)NCCCCCCCCCCCC)CC(O)CO (stereo not drawn) [ND24] | 157.6
5 | CCCCCCCCCCCCNC(=O)CCN(CCC(=O)NCCCCCCCCCCCC)C(CO)CO [ND25] | 226.4
6 | CCCCCCCCCCCCNC(=O)CCN(CCOCCO)CCC(=O)NCCCCCCCCCCCC [ND31] | 7.7
7 | CCCCCCCCCCCCNC(=O)CCN(CCCCCO)CCC(=O)NCCCCCCCCCCCC [ND32] | 531.2
8 | CCCCCCCCCCCCNC(=O)CCN(CCCCCCO)CCC(=O)NCCCCCCCCCCCC [ND36] | 135.5

same assay, conditions: lipid/DNA 5 w/w; 300 ng of DNA per well

Row | Compound | luciferase expression (second part of table, values relative to LIPO2000)
9 | CCCCCCCCCCCCNC(=O)CCN(CCCO)CCC(=O)NCCCCCCCCCCCC [ND20] | 278.1
10 | CCCCCCCCCCCCNC(=O)CCN(CCC(=O)NCCCCCCCCCCCC)CC(C)O (stereo not drawn) [ND21] | 69.2
11 | CCCCCCCCCCCCNC(=O)CCN(CCC(=O)NCCCCCCCCCCCC)CC(C)O (stereo not drawn) [ND22] | 61.7
12 | CCCCCCCCCCCCNC(=O)CCN(CCC(=O)NCCCCCCCCCCCC)CC(O)CO (stereo not drawn) [ND24] | 30.5
13 | CCCCCCCCCCCCNC(=O)CCN(CCC(=O)NCCCCCCCCCCCC)C(CO)CO [ND25] | 125.8
14 | CCCCCCCCCCCCNC(=O)CCN(CCOCCO)CCC(=O)NCCCCCCCCCCCC [ND31] | 5.6
15 | CCCCCCCCCCCCNC(=O)CCN(CCCCCO)CCC(=O)NCCCCCCCCCCCC [ND32] | 67.9
16 | CCCCCCCCCCCCNC(=O)CCN(CCCCCCO)CCC(=O)NCCCCCCCCCCCC [ND36] | 72.8

same assay, conditions: lipid/DNA 10 w/w; 300 ng of DNA per well

Row | Compound | luciferase expression (second part of table, values relative to LIPO2000)
17 | CCCCCCCCCCCCNC(=O)CCN(CCCO)CCC(=O)NCCCCCCCCCCCC [ND20] | 0.2
18 | CCCCCCCCCCCCNC(=O)CCN(CCC(=O)NCCCCCCCCCCCC)CC(C)O (stereo not drawn) [ND21] | 18.7
19 | CCCCCCCCCCCCNC(=O)CCN(CCC(=O)NCCCCCCCCCCCC)CC(C)O (stereo not drawn) [ND22] | 48.0
20 | CCCCCCCCCCCCNC(=O)CCN(CCC(=O)NCCCCCCCCCCCC)CC(O)CO (stereo not drawn) [ND24] | 2.4
21 | CCCCCCCCCCCCNC(=O)CCN(CCC(=O)NCCCCCCCCCCCC)C(CO)CO [ND25] | 19.5
22 | CCCCCCCCCCCCNC(=O)CCN(CCOCCO)CCC(=O)NCCCCCCCCCCCC [ND31] | 47.6
23 | CCCCCCCCCCCCNC(=O)CCN(CCCCCO)CCC(=O)NCCCCCCCCCCCC [ND32] | 1.1
24 | CCCCCCCCCCCCNC(=O)CCN(CCCCCCO)CCC(=O)NCCCCCCCCCCCC [ND36] | 84.3

same assay, conditions: lipid/DNA 15 w/w; 300 ng of DNA per well

Row | Compound | luciferase expression (second part of table, values relative to LIPO2000)
25 | CCCCCCCCCCCCNC(=O)CCN(CCCO)CCC(=O)NCCCCCCCCCCCC [ND20] | 0.1
26 | CCCCCCCCCCCCNC(=O)CCN(CCC(=O)NCCCCCCCCCCCC)CC(C)O (stereo not drawn) [ND21] | 2.6
27 | CCCCCCCCCCCCNC(=O)CCN(CCC(=O)NCCCCCCCCCCCC)CC(C)O (stereo not drawn) [ND22] | 4.4
28 | CCCCCCCCCCCCNC(=O)CCN(CCC(=O)NCCCCCCCCCCCC)CC(O)CO (stereo not drawn) [ND24] | 0.2
29 | CCCCCCCCCCCCNC(=O)CCN(CCC(=O)NCCCCCCCCCCCC)C(CO)CO [ND25] | 0.5
30 | CCCCCCCCCCCCNC(=O)CCN(CCOCCO)CCC(=O)NCCCCCCCCCCCC [ND31] | 44.9
31 | CCCCCCCCCCCCNC(=O)CCN(CCCCCO)CCC(=O)NCCCCCCCCCCCC [ND32] | 0.1
32 | CCCCCCCCCCCCNC(=O)CCN(CCCCCCO)CCC(=O)NCCCCCCCCCCCC [ND36] | 31.6

same assay, conditions: lipid/DNA 20 w/w; 300 ng of DNA per well

Row | Compound | luciferase expression (second part of table, values relative to LIPO2000)
33 | CCCCCCCCCCCCNC(=O)CCN(CCCO)CCC(=O)NCCCCCCCCCCCC [ND20] | 0.0
34 | CCCCCCCCCCCCNC(=O)CCN(CCC(=O)NCCCCCCCCCCCC)CC(C)O (stereo not drawn) [ND21] | 0.1
35 | CCCCCCCCCCCCNC(=O)CCN(CCC(=O)NCCCCCCCCCCCC)CC(C)O (stereo not drawn) [ND22] | 0.4
36 | CCCCCCCCCCCCNC(=O)CCN(CCC(=O)NCCCCCCCCCCCC)CC(O)CO (stereo not drawn) [ND24] | 0.0
37 | CCCCCCCCCCCCNC(=O)CCN(CCC(=O)NCCCCCCCCCCCC)C(CO)CO [ND25] | 0.0
38 | CCCCCCCCCCCCNC(=O)CCN(CCOCCO)CCC(=O)NCCCCCCCCCCCC [ND31] | 7.6
39 | CCCCCCCCCCCCNC(=O)CCN(CCCCCO)CCC(=O)NCCCCCCCCCCCC [ND32] | 0.0
40 | CCCCCCCCCCCCNC(=O)CCN(CCCCCCO)CCC(=O)NCCCCCCCCCCCC [ND36] | 0.8

same assay, conditions: lipid/DNA 25 w/w; 300 ng of DNA per well

Row | Compound | luciferase expression (second part of table, values relative to LIPO2000)
41 | CCCCCCCCCCCCNC(=O)CCN(CCCO)CCC(=O)NCCCCCCCCCCCC [ND20] | 0.0
42 | CCCCCCCCCCCCNC(=O)CCN(CCC(=O)NCCCCCCCCCCCC)CC(C)O (stereo not drawn) [ND21] | 0.4
43 | CCCCCCCCCCCCNC(=O)CCN(CCC(=O)NCCCCCCCCCCCC)CC(C)O (stereo not drawn) [ND22] | 0.2
44 | CCCCCCCCCCCCNC(=O)CCN(CCC(=O)NCCCCCCCCCCCC)CC(O)CO (stereo not drawn) [ND24] | 0.0
45 | CCCCCCCCCCCCNC(=O)CCN(CCC(=O)NCCCCCCCCCCCC)C(CO)CO [ND25] | 0.0
46 | CCCCCCCCCCCCNC(=O)CCN(CCOCCO)CCC(=O)NCCCCCCCCCCCC [ND31] | 19.7
47 | CCCCCCCCCCCCNC(=O)CCN(CCCCCO)CCC(=O)NCCCCCCCCCCCC [ND32] | 0.0
48 | CCCCCCCCCCCCNC(=O)CCN(CCCCCCO)CCC(=O)NCCCCCCCCCCCC [ND36] | 0.0

same assay, conditions: replicate set, 1st column; no head printed (2.5 w/w by the raw values)

Row | Compound | luciferase expression, second set of columns (replicate set of data)
49 | CCCCCCCCCCCCNC(=O)CCN(CCCO)CCC(=O)NCCCCCCCCCCCC [ND20] | 84.9

same assay, conditions: replicate set, 2nd column; no head printed (5 w/w by the raw values)

Row | Compound | luciferase expression, second set of columns (replicate set of data)
50 | CCCCCCCCCCCCNC(=O)CCN(CCCO)CCC(=O)NCCCCCCCCCCCC [ND20] | 5.5

same assay, conditions: replicate set, 3rd column; no head printed (10 w/w by the raw values)

Row | Compound | luciferase expression, second set of columns (replicate set of data)
51 | CCCCCCCCCCCCNC(=O)CCN(CCCO)CCC(=O)NCCCCCCCCCCCC [ND20] | 0.1

same assay, conditions: replicate set, 4th column; no head printed (15 w/w by the raw values)

Row | Compound | luciferase expression, second set of columns (replicate set of data)
52 | CCCCCCCCCCCCNC(=O)CCN(CCCO)CCC(=O)NCCCCCCCCCCCC [ND20] | 0.0

test system: not listed separately; test: DNA delivery: raw luciferase expression (relative light units) of best-transfecting lipids; type: cell-based; conditions: lipid/DNA 2.5 w/w; 300 ng of DNA per well
Protocol: Raw values for luciferase expression (relative lights units) of best-transfecting lipids at lipid/DNA (w/w) ratios listed. 300 ng of DNA was added per well.

Row | Compound | Raw values for luciferase expression
53 | CCCCCCCCCCCCNC(=O)CCN(CCCO)CCC(=O)NCCCCCCCCCCCC [ND20] | 6868960 relative lights units and 7521540 relative lights units
54 | CCCCCCCCCCCCNC(=O)CCN(CCC(=O)NCCCCCCCCCCCC)C(CO)CO [ND25] | 7548491 relative lights units
55 | CCCCCCCCCCCCNC(=O)CCN(CCCCCCO)CCC(=O)NCCCCCCCCCCCC [ND36] | 4517622 relative lights units

More lines, now with the values ahead:

Row | Raw values for luciferase expression | Compound
56 | 1170534 relative lights units | CCCCCCCCCCCCNC(=O)CCN(CCC(=O)NCCCCCCCCCCCC)CC(C)O (stereo not drawn) [ND21]
57 | 721270 relative lights units | CCCCCCCCCCCCNC(=O)CCN(CCC(=O)NCCCCCCCCCCCC)CC(C)O (stereo not drawn) [ND22]
58 | 5256861 relative lights units | CCCCCCCCCCCCNC(=O)CCN(CCC(=O)NCCCCCCCCCCCC)CC(O)CO (stereo not drawn) [ND24]
59 | 17713202 relative lights units | CCCCCCCCCCCCNC(=O)CCN(CCCCCO)CCC(=O)NCCCCCCCCCCCC [ND32]

same assay, conditions: lipid/DNA 5 w/w; 300 ng of DNA per well

Row | Compound | Raw values for luciferase expression [relative lights units]
60 | CCCCCCCCCCCCNC(=O)CCN(CCC(=O)NCCCCCCCCCCCC)C(CO)CO [ND25] | 5088120
61 | CCCCCCCCCCCCNC(=O)CCN(CCCCCCO)CCC(=O)NCCCCCCCCCCCC [ND36] | 2945357

Other lines, results leading:

Row | Raw values for luciferase expression [relative lights units] | Compound
62 | 1213862 | CCCCCCCCCCCCNC(=O)CCN(CCC(=O)NCCCCCCCCCCCC)CC(C)O (stereo not drawn) [ND21]
63 | 1083569 | CCCCCCCCCCCCNC(=O)CCN(CCC(=O)NCCCCCCCCCCCC)CC(C)O (stereo not drawn) [ND22]
64 | 1231973 | CCCCCCCCCCCCNC(=O)CCN(CCC(=O)NCCCCCCCCCCCC)CC(O)CO (stereo not drawn) [ND24]
65 | 2745231 | CCCCCCCCCCCCNC(=O)CCN(CCCCCO)CCC(=O)NCCCCCCCCCCCC [ND32]

same assay, conditions: lipid/DNA 10 w/w; 300 ng of DNA per well

Row | Compound | Raw values for luciferase expression [relative lights units]
66 | CCCCCCCCCCCCNC(=O)CCN(CCOCCO)CCC(=O)NCCCCCCCCCCCC [ND31] | 1154404
67 | CCCCCCCCCCCCNC(=O)CCN(CCCCCCO)CCC(=O)NCCCCCCCCCCCC [ND36] | 2043526

same assay, conditions: lipid/DNA 15 w/w; 300 ng of DNA per well

Row | Compound | Raw values for luciferase expression [relative lights units]
68 | CCCCCCCCCCCCNC(=O)CCN(CCOCCO)CCC(=O)NCCCCCCCCCCCC [ND31] | 936815
69 | CCCCCCCCCCCCNC(=O)CCN(CCCCCCO)CCC(=O)NCCCCCCCCCCCC [ND36] | 658985
